Measurements taken from US20090304766A1, “LOCALIZED DELIVERY OF DRUG COMBINATIONS” (priority 2005, published 2009).

Experiment: in vitro combination dose-effect analysis (cytotoxicity, Chou-Talalay combination index)
Type: cell-based
Details: FIG. 2D; single agent compared with combination
Procedure: By way of illustration, individual agents and various combinations thereof are tested for their biological effect on cell culture or a cell-free system, for example causing cell death or inhibiting cell growth, at various concentration levels. The concentration levels of the preset ratios are plotted against the percentage cell survival to obtain a correlation which can be manipulated by known and established mathematical techniques to calculate a “combination index” (CI). The mathematics are such that a CI of 1 (i.e., 0.9-1.1) describes an additive effect of the drugs; a CI>1 (i.e., >1.1) represents an antagonist effect; and a CI of <1 (i.e., <0.9) represents a synergistic effect.
As shown, agents A and B are tested individually and together at two different ratios for their ability to cause cell death or cell stasis as assessed by the MTT assay described below. Initially, correlations between the concentration of drugs A, B, and the two different combination ratios (Y:Z and X:Y) are plotted against cytotoxicity, calculated as a percentage based on the survival of untreated control cells. […] Once this correlation has been established, the cell survival or fraction affected (fa) can be used as a surrogate for concentration in calculating the CI. […]

| Compound | concentration required to achieve a 90% cell kill on its own versus when combined at a non-antagonistic ratio |
| --- | --- |
| CCc1c2c(nc3ccc(OC(=O)N4CCC(N5CCCCC5)CC4)cc13)-c1cc3c(c(=O)n1C2)COC(=O)[C@]3(O)CC [irinotecan] | significantly higher |
| N.N.O=C([O-])C1(C(=O)[O-])CCC1.[Pt+2] [carboplatin] | significantly higher |
